Assays:
HEK293T cells = assay: Cell toxicity observed during in-cell treatment; type: cell-based, human; settings: 50 μM, four hours
Procedure: We next interrogated whether compounds 6 or 7 could engage SspH1 or SspH2 in live human cells. To simplify experimental setup, we opted for NEL overexpression in mammalian cells, coupled with chemoproteomics, over a Salmonella infection-based assay. SspH1 or SspH2 were transiently expressed in HEK293T cells (Fig. S6), and cells treated with 50 μM of either compound 6 or 7 for four hours. […] Following cell lysis, we again utilized an IA-DTB chemoproteomics workflow to assess cysteine engagement.[52] Peptides engaging with compound 6 were identified with an average log2 CR ≤ −1 and P-value ≤0.05 when compared to DMSO controls (Fig. 5C and D). […] However, none of these included catalytic cysteines-containing peptides of HECT or RBR E3 ligases, nor of DUBs. Therefore, compound 6 provides a useful starting point for medicinal chemistry campaigns to design potent and specific tool compounds for SspH1 and SspH2.
All cells were grown in DMEM media (Gibco, 41966-029) supplemented with FBS (ThermoFisher, A5256701) and Pen/Strep (Gibco, 15140-122) at 37 °C with 5% CO2. SspH1 (aa 1–700) and SspH2 (aa 1–786) genes were cloned separately into […] plasmids. HEK293T cells were seeded in 6-well plates at a density of 2 × 10^5 cells per well. […] Protein concentrations were measured using a Rapid BCA Gold Protein Assay Kit (Thermo Scientific, A53226) and diluted to 1 mg mL^−1 with lysis buffer. […]

SspH1 (161–700) = SspH1 (161–700) (Salmonella typhimurium, UniProt D0ZVG2); assay: E2–Ub discharge assay; type: biochemical; parameters: Recombinant IpaH9.8 (21–545) and SspH1 (161–700) were incubated at 0.5 μM; His-tag (N, cleaved yes); made in house; host or cells: E. coli BL21; settings: SspH1 pre-labelled with compound overnight at RT; UbcH5A–Ub-cy3 1 μM, 0–30 minutes
SspH1 (161–700), sequence (D0ZVG2 161-700): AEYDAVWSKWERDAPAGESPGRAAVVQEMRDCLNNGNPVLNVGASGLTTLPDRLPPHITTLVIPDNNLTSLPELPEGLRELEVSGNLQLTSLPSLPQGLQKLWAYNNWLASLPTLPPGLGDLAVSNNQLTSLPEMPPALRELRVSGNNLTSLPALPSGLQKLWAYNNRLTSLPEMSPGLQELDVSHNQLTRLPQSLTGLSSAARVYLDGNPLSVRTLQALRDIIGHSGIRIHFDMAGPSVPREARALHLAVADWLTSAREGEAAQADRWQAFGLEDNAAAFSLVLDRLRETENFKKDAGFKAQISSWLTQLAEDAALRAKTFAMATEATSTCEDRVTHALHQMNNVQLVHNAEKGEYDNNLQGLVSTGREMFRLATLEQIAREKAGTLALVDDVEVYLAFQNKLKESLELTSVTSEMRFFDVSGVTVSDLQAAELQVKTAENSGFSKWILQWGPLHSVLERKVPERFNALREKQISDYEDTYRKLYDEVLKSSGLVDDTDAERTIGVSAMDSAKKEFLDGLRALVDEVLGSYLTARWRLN
Text: We next wanted to understand whether compounds 6 and 7 interfered with SspH1 E3 activity and turned to in vitro assays to assess E3 ligase activity. In the absence of substrate, NEL E3 ligases non-productively discharge ubiquitin from the E2–Ub thioester, a reaction that proceeds via an unstable E3-thioester intermediate.[27] This activity can be followed by E2–Ub discharge assays (Fig. 4A). We compared discharge activity of SspH1 with UbcH5A–Ub-cy3 (E2–Ub*) pre-treated with a DMSO control or compounds 6 or 7 (Fig. 4B). To ensure complete compound labelling, SspH1 was pre-incubated with the compounds overnight at room temperature, as opposed to at 4 °C which enabled us to study kinetics previously.
Fig. 4 SspH1 in vitro inhibition with compounds 6 and 7. (A) Discharge assay schematic; (B) E2–Ub discharge time course assay with SspH1 pre-treated with either DMSO or compounds 6 or 7. UbcH5A–Ub-cy3 (1 μM) was incubated at RT for 0–30 minutes with SspH1 (residues 161–700, 50 nM) which had been pre-labelled with 6 or 7 at RT overnight. (C) Substrate ubiquitination assay schematic; (D) PKN1 ubiquitination time course assay with SspH1 pre-treated with either DMSO or compounds 6 or 7. […]

Cc1cc(-c2nc3ccccc3n2C2CCN(C(=O)CCl)CC2)cc(C)c1O.Cl [compound 6]
cell toxicity (HEK293T cells): no apparent cell toxicity
SspH1 E2–Ub discharge activity (SspH1 (161–700)): completely abrogated

Cl.O=C(CCl)N1CCC(n2c(-c3ccc(C(F)(F)F)cc3)nc3ccccc32)CC1 [compound 7]
cell toxicity (HEK293T cells): significant effects on cell attachment and potential toxicity
SspH1 E2–Ub discharge activity (SspH1 (161–700)): completely abrogated

Source: publication PMC12584752, “Covalent fragment screening to inhibit the E3 ligase activity of bacterial NEL enzymes SspH1 and SspH2” (RSC Chemical Biology, 2025)
